Data reported in US10568873B1, “Safranal-sorafenib combination therapy for liver cancer” (United Arab Emirates University, priority 2019, dated 2020).

Columns and labels:
Assay type in all cases: in vivo, male Wistar rats
[1] = test system: DEN-induced hepatic neoplasia in rats; assay: Serum ALT and AST biochemical analysis in DEN-induced HCC rats; conditions: P<0.05, one-way ANOVA, Tukey
Method: (§1) A modified version of the protocol described by DePeralta et al. (2016) and Schiffer et al. (2005) was used here to establish the hepatocarcinogenesis model.
On the first 15 weeks, the control PBS group was treated with 1×PBS, whereas the experimental groups were given an intraperitoneal injection (IP) of 50 mg/kg of diethylnitrosoamine (DEN, Sigma Aldrich), a widely used chemical for inducing cancer, once a week. DEN was diluted with 1×PBS. Following a one-week break (week 16), the next three weeks (weeks 17 to 19) of treatment commenced. All drugs were administrated by oral gavage. […] For the HCC+sorafenib group, the drug (Carbosynth Limited) was administered at a dose of 10 mg/kg, five days a week. For the HCC+safranal group, the drug (Sigma Aldrich) was administered at a dose of 200 mg/kg, five days a week. For the HCC+safranal+sorafenib group, the drugs were administered at a dose of 200 mg/kg safranal+10 mg/kg sorafenib, five days a week. Both safranal and sorafenib were diluted with 1×PBS and drops of Tween 80. […] After 24-hours from last treatment, the rats were euthanized by mild diethyl ether and dissected in equal conditions. […]
Alanine Transaminase (ALT), and Aspartate Aminotransferase (AST) assays were performed using commercial kits (Abcam), according to the protocol provided. ALT and AST activities were measured spectrophotometrically using Epoch by BioTek.

[2] = test system: DEN-induced hepatic neoplasia in rats; assay: Liver gross examination and number of liver nodules
Method: as §1
On the first 15 weeks, the control PBS group was treated with 1×PBS, whereas the experimental groups were given an intraperitoneal injection (IP) of 50 mg/kg of diethylnitrosoamine (DEN, Sigma Aldrich), a widely used chemical for inducing cancer, once a week. DEN was diluted with 1×PBS. Following a one-week break (week 16), the next three weeks (weeks 17 to 19) of treatment commenced. All drugs were administrated by oral gavage. […] For the HCC+sorafenib group, the drug (Carbosynth Limited) was administered at a dose of 10 mg/kg, five days a week. For the HCC+safranal group, the drug (Sigma Aldrich) was administered at a dose of 200 mg/kg, five days a week. For the HCC+safranal+sorafenib group, the drugs were administered at a dose of 200 mg/kg safranal+10 mg/kg sorafenib, five days a week. Both safranal and sorafenib were diluted with 1×PBS and drops of Tween 80. […] After 24-hours from last treatment, the rats were euthanized by mild diethyl ether and dissected in equal conditions. Blood and whole liver were collected.

[3] = test system: DEN-induced hepatic neoplasia in rats; assay: Histology (H&E), area of neoplastic foci (AHF); conditions: H&E sections; FIG. 5; P<0.05
Method: as §1
(§2) On the first 15 weeks, the control PBS group was treated with 1×PBS, whereas the experimental groups were given an intraperitoneal injection (IP) of 50 mg/kg of diethylnitrosoamine (DEN, Sigma Aldrich), a widely used chemical for inducing cancer, once a week. DEN was diluted with 1×PBS. Following a one-week break (week 16), the next three weeks (weeks 17 to 19) of treatment commenced. All drugs were administrated by oral gavage. All doses were chosen according to literature (Alsaied et al., 2014; Karafakioğlu et al., 2017). For the HCC+sorafenib group, the drug (Carbosynth Limited) was administered at a dose of 10 mg/kg, five days a week. For the HCC+safranal group, the drug (Sigma Aldrich) was administered at a dose of 200 mg/kg, five days a week. For the HCC+safranal+sorafenib group, the drugs were administered at a dose of 200 mg/kg safranal+10 mg/kg sorafenib, five days a week. Both safranal and sorafenib were diluted with 1×PBS and drops of Tween 80. […] After 24-hours from last treatment, the rats were euthanized by mild diethyl ether and dissected in equal conditions. Blood and whole liver were collected. […]

[4] = test system: DEN-induced hepatic neoplasia in rats; assay: Reticulin staining of liver sections; conditions: reticulin-stained sections; FIG. 6
Method: as §1, §2

PCNA = assay: Western blot of proliferation-related protein PCNA in liver; conditions: normalized to total protein, n=4, P<0.05, FIG. 7
Method: as §1
(§3) On the first 15 weeks, the control PBS group was treated with 1×PBS, whereas the experimental groups were given an intraperitoneal injection (IP) of 50 mg/kg of diethylnitrosoamine (DEN, Sigma Aldrich), a widely used chemical for inducing cancer, once a week. DEN was diluted with 1×PBS. Following a one-week break (week 16), the next three weeks (weeks 17 to 19) of treatment commenced. All drugs were administrated by oral gavage. All doses were chosen according to literature (Alsaied et al., 2014; Karafakioğlu et al., 2017). […]
(§4) One hundredth gm (10 mg) liver was homogenized using 200 μl RIPA buffer (Sigma Aldrich) mixed with 2 μl protease inhibitor and 2 μl phosphatase inhibitor (Sigma Aldrich), and centrifuged at 4° C., 15,000 rpm for 15 minutes. […] Protein concentration was measured by Pierce BCA Protein Assay Kit with Promega GloMax Discover. […] Band density and quantification was done using ImageJ (Amin et al., 2011). […]
(§5) Due to technical reasons, total protein was used in this study as the loading control instead of the other common markers like GAPDH, β-tubulin, and β-actin. […] Ten internal controls were used, and their expressions were determined using RT-PCR. […]

Cdk1, Cyclin B1, Cdc25B = assay: Western blot of cell cycle-related proteins in liver
Method: as §1, §3, §4, §5

[5] = test system: Bcl-2, Bax, Pro-Caspase-9, Pro-Caspase-3, PARP; assay: Western blot of intrinsic apoptosis-related proteins in liver
Method: as §1
On the first 15 weeks, the control PBS group was treated with 1×PBS, whereas the experimental groups were given an intraperitoneal injection (IP) of 50 mg/kg of diethylnitrosoamine (DEN, Sigma Aldrich), a widely used chemical for inducing cancer, once a week. DEN was diluted with 1×PBS. Following a one-week break (week 16), the next three weeks (weeks 17 to 19) of treatment commenced. All drugs were administrated by oral gavage. All doses were chosen according to literature (Alsaied et al., 2014; Karafakioğlu et al., 2017). For the HCC+sorafenib group, the drug (Carbosynth Limited) was administered at a dose of 10 mg/kg, five days a week. For the HCC+safranal group, the drug (Sigma Aldrich) was administered at a dose of 200 mg/kg, five days a week. For the HCC+safranal+sorafenib group, the drugs were administered at a dose of 200 mg/kg safranal+10 mg/kg sorafenib, five days a week. Both safranal and sorafenib were diluted with 1×PBS and drops of Tween 80. […] After 24-hours from last treatment, the rats were euthanized by mild diethyl ether and dissected in equal conditions. Blood and whole liver were collected.
One hundredth gm (10 mg) liver was homogenized using 200 μl RIPA buffer (Sigma Aldrich) mixed with 2 μl protease inhibitor and 2 μl phosphatase inhibitor (Sigma Aldrich), and centrifuged at 4° C., 15,000 rpm for 15 minutes. Whole cell lysate was taken and stored at −80° C. Protein concentration was measured by Pierce BCA Protein Assay Kit with Promega GloMax Discover. A total of 35 μg of protein was loaded on a sodium dodecyl sulfate-polyacrylamide gel electrophoresis gel. […] Band density and quantification was done using ImageJ (Amin et al., 2011). […]
as §5

## CC1=C(C=O)C(C)(C)CC=C1 [safranal, 2,6,6-trimethyl-1,3-cyclohexadiene-1-carboxaldehyde]
[1]
  ALT levels as compared to HCC group: significantly (P<0.05) decreased ALT levels
[2]; FIG. 3
  lesions comparing to treatment with sorafenib alone: dramatically decreased lesions
[2]; week 20, FIG. 2, FIG. 3
  number of liver nodules / lesions comparing to HCC animals: reduced lesions
[3]
  area of neoplastic foci / restoration of normal liver architecture: seems to enhance (P<0.05) the restoration of the normal architecture of the liver
[4]
  reticular fibers' breakage and morphology comparing to HCC group: reduced reticular fibers' breakage and restored their morphology
PCNA
  PCNA expression: significantly downregulated PCNA
Cdk1, Cyclin B1, Cdc25B; FIG. 9
  Cdk1, cyclin B1, Cdc25B decrease versus sorafenib alone: showed a greater decrease than treatment with sorafenib alone
Cdk1, Cyclin B1, Cdc25B; P<0.05, FIG. 8, FIG. 9
  Cdk1, cyclin B1, Cdc25B levels comparing to HCC animals: significantly decreased their levels
[5]; FIG. 10, FIG. 11
  expression of the anti-apoptotic protein Bcl-2 compared to HCC groups: significantly (P<0.05) decreased
  expression of the pro-apoptotic protein Bax compared to HCC groups: significantly (P<0.05) increased
[5]; P<0.05, FIG. 12
  expression of pro-caspases-9 & 3 and whole PARP compared to HCC group: significantly decreased
